Source: patent US10166237B2, “Compounds and methods for inducing chondrogenesis” (The Scripps Research Institute, priority 2011, dated 2019)

test system: human mesenchymal stem cells (hMSCs); experiment: chondrogenic nodule formation by hMSCs (high throughput screen); type: cell-based; conditions: not given
Method: The primary screening assay was based upon the development of chondrogenic nodules. Chondrocytes can grow in monolayer in vitro, but to more closely mimic their native environment in the joint, the cells are routinely cultured in non-adherent conditions such as in pellet cultures or alginate bead suspensions.
In the actual screen of a library of 22,000 structurally diverse heterocycles, 10^4 primary hMSCs were plated in 384 well plates in serum free DMEM. The cells were treated with 5 μM of each compound and incubated for 4 days. […] To facilitate high throughput imaged-based detection, the chondrogenic nodules were stained with […]. The Nile Red stained nodules were quantified on an Acumen eX3 (high content imaging device) by excitation with a 488 laser for rapid detection of the nodules.
Primary hMSCs grown in a 96 well Greiner plates (50,000/well) were incubated for 4 days in the presence of the 5 uM of each DMSO or 100 nM of PRO1. On day 4, the cells were fixed with 4% formalin for 10 minutes, washed and stained with 1 μg/ml of Rhodamine B for 2 hours at room temperature.

SMILES	Activity (chondrogenic nodules formed in % of cells)
O=C(Cc1ccc(C(=O)O)cc1)Nc1ccccc1C(=O)O [MS14]	** (chondrogenic nodules formed in at least 25% but less than 50% of cells)
N#Cc1ccc(/C=C/C(=O)c2ccccc2C(=O)O)cc1 [MS15, 2-[(2E)-3-(4-cyanophenyl)prop-2-enoyl]benzoic acid]	*** (chondrogenic nodules formed in at least 50% but less than 75% of cells)
O=C(O)c1ccc(/C=C/C(=O)c2ccccc2C(=O)O)cc1 [MS16]	** (chondrogenic nodules formed in at least 25% but less than 50% of cells)
N#Cc1ccc(C(=O)CC2OC(=O)c3ccccc32)cc1 (stereo not drawn) [MS17-1]	*** (chondrogenic nodules formed in at least 50% but less than 75% of cells)
O=C(O)c1ccc(C(=O)CC2OC(=O)c3ccccc32)cc1 (stereo not drawn) [MS18-1]	** (chondrogenic nodules formed in at least 25% but less than 50% of cells)
N#Cc1ccc(-c2c[nH]c3c(C(=O)O)cccc23)cc1 [MS21]	*** (chondrogenic nodules formed in at least 50% but less than 75% of cells)
N#Cc1ccc(N2Cc3ccccc3C2=O)cc1 [MS26]	** (chondrogenic nodules formed in at least 25% but less than 50% of cells)
N#Cc1ccc(N2C(=O)c3ccccc3C2=O)cc1 [MS28]	** (chondrogenic nodules formed in at least 25% but less than 50% of cells)
O=C(O)c1ccc(N2C(=O)c3ccccc3C2=O)cc1 [MS29]	*** (chondrogenic nodules formed in at least 50% but less than 75% of cells)
O=C(O)c1ccc2c(c1)C(=O)N(Cc1ccccc1C(=O)O)C2=O [MS39]	*** (chondrogenic nodules formed in at least 50% but less than 75% of cells)
O=C(NO)c1ccc(NC(=O)c2ccccc2C(=O)O)cc1 [PA02]	** (chondrogenic nodules formed in at least 25% but less than 50% of cells)
O=C(O)c1ccccc1C(=O)Nc1ccc(-c2nn[nH]n2)cc1 [PA06]	*** (chondrogenic nodules formed in at least 50% but less than 75% of cells)
O=C(O)c1ccccc1C(=O)Nc1ccc(S(=O)(=O)O)cc1 [PA07]	*** (chondrogenic nodules formed in at least 50% but less than 75% of cells)
O=C(O)c1ccccc1C(=O)Nc1ccc(P(=O)(O)O)cc1 [PA08]	** (chondrogenic nodules formed in at least 25% but less than 50% of cells)
O=C(O)c1ccccc1C(=O)Nc1ccc(COc2ccccc2)cc1 [PM02]	** (chondrogenic nodules formed in at least 25% but less than 50% of cells)
O=C(O)c1ccccc1C(=O)Nc1ccc(-c2ccccn2)cc1 [PM05]	** (chondrogenic nodules formed in at least 25% but less than 50% of cells)
NC(=O)NCc1ccc(NC(=O)c2ccccc2C(=O)O)cc1 [PM10]	** (chondrogenic nodules formed in at least 25% but less than 50% of cells)
COC(=O)NCc1ccc(NC(=O)c2ccccc2C(=O)O)cc1 [PM11]	** (chondrogenic nodules formed in at least 25% but less than 50% of cells)
O=C(O)c1ccccc1C(=O)Nc1ccc(-c2ncc[nH]2)cc1 [PM18]	** (chondrogenic nodules formed in at least 25% but less than 50% of cells)

same assay, conditions: Homo sapiens, Mesenchymal stem cells; first value of the cell (before the slash); read-out: CHONDROGENIC μM EC50

EC50 [µM]	SMILES
> 10	O=C(c1ccccc1)c1ccc(NC(=O)c2ccccc2C(=O)O)cc1
> 10	CCCOC(=O)c1ccc(NC(=O)c2ccccc2C(=O)O)cc1
> 10	O=C(O)c1ccccc1C(=O)Nc1ccc(F)cc1
5	O=C(O)c1ccccc1C(=O)Nc1ccccc1 [LK49]
0.005	O=C(O)c1ccc(NC(=O)c2ccccc2C(=O)O)cc1 [LK53]

test system: primary bovine chondrocytes; experiment: inhibition of cytokine-induced nitric oxide release (Greiss reaction); type: cell-based; conditions: Bos taurus, Chondrocyte; second value of the cell (after the slash); TNFα and oncostatin M, 48 hours; read-out: NO INHIBTION μM IC50
Source text: In the screen, hMSCs were used as a surrogate to future targeting of the resident MSCs with the cartilage joint. It was in that setting upon which we identified PRO1. In a joint injury, the primary cell type a therapeutic would have contact with is the chondrocyte. Although cartilage or chondrocyte-targeted screening has not lead to the development of a successful drug modifying osteoarthritis drug (DMOAD) to date, it is believed that a stem cell-based therapeutic would protect and even repair the existing chondrocytes. Therefore, protection of the articular chondrocytes and cartilage from a mature bovine knee was assessed. PRO1 and its analogues were incubated with primary bovine chondrocytes or cartilage explants cultures grown in the presence of TNFα and oncostatin M to mimic the cytokine-induced damage that can occur during OA. In the presence of the cytokine cocktail, in vitro cultured primary chondrocytes released 4-5 fold more nitric oxide (NO) than the untreated chondrocytes (50 μM vs 10 μM) as measured by the Greiss reaction. In cells treated with the cytokine cocktail and PRO1, the small molecule could effectively block the release of NO by up to 70% FIG. 2C). Similarly, in ex vivo treated cartilage explants, cytokine-induced release of glycosaminoglycans (GAG) was reduced by up to 60% by PRO1 (FIG. 2D). Finally, hMSC were grown in pellet culture for 21 days.
Primary hMSCs were plated (10,000/well) in 384-well plates and cultured for 18 days. The cells were fixed with 4% formalin, permeabilized with triton (0.5%), digested with 0.5 mg/ml collagenase II to unwind the collagen fibrils, and then immunostained with an antibody recognizing type II collagen. DAPI (2 μg/ml) was added to visualize the nuclei. The chondrogenic nodules stained positive for type II collagen but lacked expression of type X collagen and osteocalcin, markers for chondrocyte hypertrophy and osteoblasts, respectively (not shown). 10,000 hMSCs (passages 3-5) were plated in Greiner 384-well low-bottom plates on day 1. The cells were allowed to adhere and stimulated for 48 hrs (days 2-3) with the indicated stimuli in MSC growth media (Millipore). The media was then removed and replaced with serum-free DMEM for an additional 16 days. This media was replenished on days 10 and 15 of the assay. Primary bovine chondrocytes were isolated from the articular surfaces from mature knees. After one week of culture, 8,500 cells were trypsinized and plated in Greiner 384-well white clear-bottom plates in growth media. […] 20 μl of the supernatant was mixed with 20 μl of the Greiss reagent and quantitated at 540 nm as described by the Promega kit instructions. Bovine cartilage explants (cut in circular explants in a 96 well plate) were cultured in the presence of 20 ng/ml TNFα and 10 ng/ml oncostatin M to induce GAG release for 72 hours (FIG. 2D). PRO1 was added at the indicated concentrations during the entire 72 hrs. […] Parafin sections were hydrated, incubated in low pH Antigen unmasking solution (Vector) at 90 C for 10 minutes, permeabilized with 0.1% collagenase II (only for the sections stained with type II collagen) for 10 minutes, blocked with CAS block for 10 minutes and then incubated with the primary antibody (type II collagen, aggrecan or Timp1) antibody (Abcam) overnight at 4 C. The antigens were visualized through standard ABC detection methods and developed with DAB. Representative of 3 sections stained/treatment group (independent experiments).

SMILES	IC50 [µM]
O=C(c1ccccc1)c1ccc(NC(=O)c2ccccc2C(=O)O)cc1	2.5
CCCOC(=O)c1ccc(NC(=O)c2ccccc2C(=O)O)cc1	0.624
COC(=O)c1cc(C(=O)O)ccc1C(=O)Nc1ccc(C(=O)O)cc1	> 10
O=C(O)c1ccccc1C(=O)Nc1ccc(S(=O)(=O)N2CCCCC2)cc1	2.7
O=C(Nc1ccc(Cc2ccccc2)cc1)c1cc(Cl)cc(Cl)c1C(=O)O	> 10
C=COc1ccc(NC(=O)c2ccccc2C(=O)O)cc1	> 10
C#CCOC(=O)c1ccccc1C(=O)Nc1ccc(Br)cc1	> 10
COC(=O)c1ccccc1C(=O)Nc1ccccc1	> 10
O=C(Nc1ccccc1)c1ccccc1C(=O)OCc1ccc([N+](=O)[O-])cc1	> 10
C=CCOC(=O)c1ccccc1C(=O)Nc1ccc(I)cc1	> 10
CC1COCCN1C(=O)c1ccc(NC(=O)c2ccccc2C(=O)O)cc1 (stereo not drawn)	2.64
C=C(C)CS(=O)(=O)c1ccc(NC(=O)c2ccccc2C(=O)O)cc1	0.925
CCCCCOc1ccc(NC(=O)c2ccccc2C(=O)O)cc1	> 10
COC(=O)c1ccccc1C(=O)Nc1ccc(C#N)cc1	> 10
CCc1ccc(NC(=O)c2ccc(C(=O)O)cc2C(=O)O)cc1	0.925
CC(C)(C)Oc1ccc(NC(=O)c2ccccc2C(=O)O)cc1	> 10
O=C(O)c1cc(Cl)c(Cl)cc1C(=O)Nc1ccc(Cl)cc1	> 10
COc1ccc(NC(=O)c2ccccc2C(=O)Oc2ccc(OC)cc2)cc1	> 10
O=C(O)c1cc([N+](=O)[O-])ccc1C(=O)Nc1ccc(-c2ccccc2)cc1	> 10
CC(=O)Nc1ccc(NC(=O)c2ccccc2C(=O)O)cc1	> 10
O=C(O)c1ccccc1C(=O)Nc1ccc(F)cc1	0.0125

SMILES	IC50 [µM]
Cc1ccc2nc(-c3ccc(NC(=O)c4ccccc4C(=O)O)cc3)sc2c1	0.987
O=C(O)c1ccccc1C(=O)Nc1ccc(-c2csc(-c3ccccc3)n2)cc1	> 10
O=C(O)c1ccc(NC(=O)c2ccccc2C(=O)O)c(C(=O)O)c1	> 10
O=C(O)c1ccc(C(=O)Nc2ccc(Br)cc2)c(C(=O)O)c1	> 10
O=C(O)c1ccc(C(=O)Nc2ccc(O)cc2)c(C(=O)O)c1	> 10
Cc1ccc(Oc2ccc(NC(=O)c3ccccc3C(=O)O)cc2)cc1	> 10
O=C(O)c1ccccc1C(=O)Nc1ccc(Oc2ccc3ccccc3c2)cc1	> 10
COc1ccc(NC(=O)c2cc(Cl)c(Cl)cc2C(=O)O)cc1	> 10
O=C(O)c1ccccc1C(=O)Nc1ccc(OC(F)F)cc1	> 10
O=C(O)c1ccccc1C(=O)Nc1ccc([N+](=O)[O-])cc1	> 10
CCN(CC)c1ccc(NC(=O)c2ccccc2C(=O)O)cc1	2.98
O=C(O)c1ccccc1C(=O)Nc1ccc(S(=O)(=O)NCc2ccccc2)cc1	> 10
O=C(O)c1ccccc1C(=O)Nc1ccc(Oc2ccccc2)cc1	> 10
C#CCOC(=O)c1ccccc1C(=O)Nc1ccc(Cl)cc1	> 10
O=C(O)c1ccccc1C(=O)Nc1ccc(C(=O)N2CCOCC2)cc1	> 10
CC(C)(C)c1ccc(NC(=O)c2cc(Cl)c(Cl)cc2C(=O)O)cc1	> 10
CCOc1ccc(NC(=O)c2cccc(O)c2C(=O)O)cc1	> 10
O=C(O)c1ccc(C(=O)Nc2ccc(I)cc2)c(C(=O)O)c1	> 10
O=C(O)c1ccccc1C(=O)Nc1ccccc1 [LK49]	> 10
O=C(O)c1ccc(NC(=O)c2ccccc2C(=O)O)cc1 [LK53]	0.146
CC(=O)c1ccc(NC(=O)c2ccccc2C(=O)O)cc1 [drawing 168]	> 10
